Source: paper PMC3733984, “Tylophorine, a phenanthraindolizidine alkaloid isolated from Tylophora indica exerts antiangiogenic and antitumor activity by targeting vascular endothelial growth factor receptor 2–mediated angiogenesis” (Molecular Cancer, 2013)

Target: VEGFR2 (KDR/Flk-1) (Homo sapiens, UniProt P35968)
Experiment: in vitro HTScan VEGFR2 kinase assay, colorimetric ELISA detection ([…] ATP)
Assay type: biochemical

Chain of VEGFR2 (KDR/Flk-1) (P35968 20-1356): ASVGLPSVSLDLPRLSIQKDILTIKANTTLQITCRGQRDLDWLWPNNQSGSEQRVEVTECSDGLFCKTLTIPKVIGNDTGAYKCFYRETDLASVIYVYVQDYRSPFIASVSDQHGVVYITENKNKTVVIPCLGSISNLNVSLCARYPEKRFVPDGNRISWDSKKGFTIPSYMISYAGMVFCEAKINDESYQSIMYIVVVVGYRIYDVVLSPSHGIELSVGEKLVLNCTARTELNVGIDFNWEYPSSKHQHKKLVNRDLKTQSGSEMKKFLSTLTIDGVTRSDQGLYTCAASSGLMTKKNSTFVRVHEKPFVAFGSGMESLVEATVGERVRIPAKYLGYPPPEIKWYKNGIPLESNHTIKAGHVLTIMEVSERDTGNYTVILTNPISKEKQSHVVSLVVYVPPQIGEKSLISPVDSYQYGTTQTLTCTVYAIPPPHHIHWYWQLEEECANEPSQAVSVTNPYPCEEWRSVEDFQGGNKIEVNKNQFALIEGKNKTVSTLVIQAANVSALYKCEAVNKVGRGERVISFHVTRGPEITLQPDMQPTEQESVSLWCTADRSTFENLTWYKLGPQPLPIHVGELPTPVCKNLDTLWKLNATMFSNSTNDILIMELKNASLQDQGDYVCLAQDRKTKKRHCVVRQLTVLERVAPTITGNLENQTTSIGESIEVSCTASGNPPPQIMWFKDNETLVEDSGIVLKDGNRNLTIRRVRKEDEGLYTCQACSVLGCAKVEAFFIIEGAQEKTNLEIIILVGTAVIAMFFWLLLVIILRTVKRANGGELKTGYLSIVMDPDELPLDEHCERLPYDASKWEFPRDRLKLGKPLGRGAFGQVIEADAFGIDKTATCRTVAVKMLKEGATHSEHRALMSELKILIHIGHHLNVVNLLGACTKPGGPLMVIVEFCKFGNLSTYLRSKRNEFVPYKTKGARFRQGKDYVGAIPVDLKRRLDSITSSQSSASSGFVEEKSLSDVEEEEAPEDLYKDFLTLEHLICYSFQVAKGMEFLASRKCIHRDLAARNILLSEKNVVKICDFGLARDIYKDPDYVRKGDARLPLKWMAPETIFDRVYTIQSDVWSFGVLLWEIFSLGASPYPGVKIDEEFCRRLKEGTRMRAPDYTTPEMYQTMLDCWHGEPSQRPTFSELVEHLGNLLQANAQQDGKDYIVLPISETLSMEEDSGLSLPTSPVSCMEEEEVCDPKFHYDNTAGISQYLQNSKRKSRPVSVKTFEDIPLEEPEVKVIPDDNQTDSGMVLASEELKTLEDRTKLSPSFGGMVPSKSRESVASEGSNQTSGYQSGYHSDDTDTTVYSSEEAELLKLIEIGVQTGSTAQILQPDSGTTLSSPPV

COc1cc2c3c(c4cc(OC)c(OC)cc4c2cc1OC)CN1CCC[C@@H]1C3 [Tylophorine]
IC50: ~9.2 µM
